Data: patent US20220330549A1, “USE OF N-BENZYLBENZAMIDE-BASED COMPOUND AS HERBICIDE” (Northwest A&F University, priority 2020, published 2022)

Columns and labels:
Type in all cases: in vivo
[1] = system: Barnyard grass; experiment: Herbicidal activity test for indoor pre-emergence soil treatment; parameters: key: level 1-9; higher = more weed remaining vs blank control; details: 150 g a.i./ha, visual inspection 21 days after treatment
Summary of the method: (§1)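 Pre-emergence test following NY/T 1155.3-2006: weed seeds were sown in moistened neutral sandy loam (≤2% organic matter) and covered with 0.5–2.0 cm of soil. After 24 h, the soil was sprayed with a 10% EC diluted in water at 150 g(a.i.)/ha. Damage was scored visually on a 1–9 scale at 21 days.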

[2] = system: Piemarker; experiment: as above; parameters: key: level 1-9; higher = more weed remaining vs blank control; details: 150 g a.i./ha, visual inspection 21 days after treatment
Summary of the method: as §1

[3] = system: green bristlegrass; experiment: as above; parameters: key: level 1-9; higher = more weed remaining vs blank control; details: 150 g a.i./ha, visual inspection 21 days after treatment
Summary of the method: as §1

[4] = system: Amaranthus retroflexus; experiment: as above; parameters: key: 1-9 levels; higher = more weed remaining vs blank control; details: 150 g a.i./ha, visual inspection 21 days after treatment
Summary of the method: as §1

[5] = system: Digitaria sanguinalis; experiment: as above; parameters: key: 1-9 levels; higher = more weed remaining vs blank control; details: 150 g a.i./ha, visual inspection 21 days after treatment
Summary of the method: as §1

[6] = system: Humulus scandens; experiment: as above; details: 150 g a.i./ha, visual inspection 21 days after treatment
Summary of the method: as §1

[7] = system: Amaranthus retroflexus; experiment: Herbicidal activity test for indoor post-emergence spraying on stems and leaves; parameters: key: grade level by weed remaining vs blank control, e.g. 5 = 10.1-15%; details: 150 g a.i./ha, visual inspection 21 days after treatment
Summary of the method: (§2)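 Greenhouse-grown weeds, post-emergence foliar spray (NY/T 1155.4-2006 method); visual scoring at 21 d post-treatment as levels vs. untreated blank control (e.g., level 5 = 10.1–15%, level 8 = 35.1–67.5% of control weed).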

[8] = system: Barnyard grass; experiment: as above; parameters: key: grade level by weed remaining vs blank control, e.g. 5 = 10.1-15%; details: 150 g a.i./ha, visual inspection 21 days after treatment
Summary of the method: as §2

[9] = system: Digitaria sanguinalis; experiment: as above; parameters: key: grade level by weed remaining vs blank control, e.g. 5 = 10.1-15%; details: 150 g a.i./ha, visual inspection 21 days after treatment
Summary of the method: as §2

[10] = system: Humulus scandens; experiment: as above; parameters: key: grade level by weed remaining vs blank control, e.g. 5 = 10.1-15%; details: 150 g a.i./ha, visual inspection 21 days after treatment
Summary of the method: as §2

[11] = system: Piemarker; experiment: as above; parameters: key: grade level by weed remaining vs blank control, e.g. 5 = 10.1-15%; details: 150 g a.i./ha, visual inspection 21 days after treatment
Summary of the method: as §2

[12] = system: green bristlegrass; experiment: as above; parameters: key: grade level by weed remaining vs blank control, e.g. 5 = 10.1-15%; details: 150 g a.i./ha, visual inspection 21 days after treatment
Summary of the method: as §2

[13] = system: Broadleaf weed; experiment: Post-emergence herbicidal activity test in a paddy field; parameters: key: level scale; higher level = more weed left vs blank control; details: 150 g a.i./ha (penoxsulam control 250 g(a.i.)/h)
Summary of the method: (§3)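 Efficacy was visually estimated 15 and 30 days after spraying, grading weed coverage relative to an untreated neighbouring plot (level 2 = 0 to 2.5%, level 9 = 67.6 to 100%). Treatments were 150 g(a.i.)/ha from 10% emulsifiable concentrates applied at the 4-5 leaf rice stage, four repeats of 50 m^2 each.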

[14] = system: Cyperaceae; experiment: as above; parameters: key: level scale; higher level = more weed left vs blank control; details: 150 g a.i./ha (penoxsulam control 250 g(a.i.)/h)
Summary of the method: as §3

[15] = system: Gramineae; experiment: as above; parameters: key: level scale; higher level = more weed left vs blank control; details: 150 g a.i./ha (penoxsulam control 250 g(a.i.)/h)
Summary of the method: as §3

[16] = system: Acalypha australis; experiment: Field test for weed control in a corn field; details: 150 g a.i./ha, after treatment
Summary of the method: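 Herbicidal activity against weeds was assessed in corn plots by the GB/T 17980.42-2000 method. Corn at the 2–5 leaf stage received water sprays of 10% emulsifiable concentrates at 150 g(a.i.)/ha, four repeats per treatment over 20 m^2. A 25% mesotrione oil dispersion was the reference. Damage symptoms and severity were rated on levels 1-9 relative to weeds in the blank control area.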

[17] = system: Amaranthus retroflexus; experiment: Field test for weed control in a corn field; details: 150 g a.i./ha, 30 days after treatment
Summary of the method: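 Post-emergence control of Amaranthus retroflexus was assessed in corn plots using the GB/T 17980.42-2000 method. Emulsifiable concentrates (10%) in water were applied by spraying at the 2- to 5-leaf crop stage on 20 m^2 plots, four replicates each, alongside a mesotrione 25% oil dispersion reference. Herbicidal activity was scored on 1-9 levels by weed amount relative to blank control areas.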

[18] = system: Barnyard grass; experiment: Field test for weed control in a corn field; details: 150 g a.i./ha, 30 days after treatment
Summary of the method: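 Herbicidal activity against barnyard grass was assessed in corn field plots of 20 m^2, with four replicates per treatment. Compounds were applied as water-diluted 10% emulsifiable concentrates at 150 g(a.i.)/ha at the 2-5 leaf corn stage, with 25% mesotrione oil dispersion as the reference agent. Damage was scored on a 1-9 scale against untreated blank plots.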

[19] = system: Chenopodium album; experiment: Field test for weed control in a corn field; details: 150 g a.i./ha, after treatment
Summary of the method: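 Field weed-control testing in corn, run per GB/T 17980.42-2000, scored Chenopodium album on a 1-9 level scale, where each level matches a percentage range of weed remaining relative to the blank control area. Sprays of 10% emulsifiable concentrates in water delivered 150 g(a.i.)/ha at the corn 2-leaf to 5-leaf stage on 20 m^2 plots, four replicates each. Mesotrione 25% oil dispersion served as reference.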

[20] = system: Convolvulus arvensis; experiment: Field test for weed control in a corn field; details: 150 g a.i./ha, after treatment
Summary of the method: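 Post-emergence herbicidal activity on Convolvulus arvensis was scored in a corn field on a 1-9 scale, based on symptoms and damage severity. Each level corresponds to the weed remaining as a percentage of the blank control area. Sprays of 10% emulsifiable concentrate at 150 g(a.i.)/ha went on at the corn 2–5 leaf stage, with four replicates of 20 m^2 per treatment.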

[21] = system: Digitaria sanguinalis; experiment: Field test for weed control in a corn field; details: 150 g a.i./ha, after treatment
Summary of the method: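 Field trial in a corn field following GB/T 17980.42-2000. Test compounds were formulated as 10% emulsifiable concentrates, diluted in water and sprayed post-emergence at 150 g(a.i.)/ha when corn had 2 to 5 leaves, with 4 replicates on 20 m^2 plots. Control of Digitaria sanguinalis was scored on a 1-9 scale based on weed damage relative to the untreated blank area.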

[22] = system: Portulaca oleracea; experiment: Field test for weed control in a corn field; details: 150 g a.i./ha, after treatment
Summary of the method: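 Post-emergence weed control was evaluated in a corn field by the GB/T 17980.42-2000 method. Emulsifiable concentrates (10%) in water were applied as sprays at 150 g(a.i.)/ha at the 2-5 leaf corn stage, in four replicate 20 m^2 plots. A 25% mesotrione oil dispersion served as control agent. Effects were graded 1-9 relative to weed remaining in blank control areas.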

[23] = system: Solanum nigrum; experiment: Field test for weed control in a corn field; details: 150 g a.i./ha, 30 days after treatment
Summary of the method: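 In a corn field trial based on GB/T 17980.42-2000, 10% emulsifiable concentrates diluted in water were sprayed at 150 g(a.i.)/ha at the 2 to 5 leaf stage of corn. Each treatment used 20 m^2 plots and was repeated 4 times, with 25% mesotrione oil dispersion as the reference agent. Solanum nigrum damage was scored on a 1-9 scale against blank control plots.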

[24] = system: goosegrass; experiment: Field test for weed control in a corn field; details: 150 g a.i./ha, after treatment
Summary of the method: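 In this field trial in corn, run per GB/T 17980.42-2000, test agents prepared as 10% emulsifiable concentrates were applied in water as sprays at 150 g(a.i.)/ha at the 2- to 5-leaf corn stage. Each treatment covered 20 m^2 and was repeated 4 times. Goosegrass control was scored 1-9 relative to weed remaining in blank control areas.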

[25] = system: green bristlegrass; experiment: Field test for weed control in a corn field; details: 150 g a.i./ha, after treatment
Summary of the method: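 Herbicidal activity against green bristlegrass was assessed in corn field plots of 20 m^2 per GB/T 17980.42-2000. Test agents, formulated as 10% emulsifiable concentrates, were applied in water at 150 g(a.i.)/ha at the corn 2 leaves to 5 leaves stage, repeated 4 times. A 25% mesotrione oil dispersion served as the control agent, and weed damage was rated on levels 1-9.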

[26] = system: nutgrass flatsedge; experiment: Field test for weed control in a corn field; details: 150 g a.i./ha, after treatment
Summary of the method: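 Herbicidal effect on nutgrass flatsedge was measured in a field planted with corn, using the GB/T 17980.42-2000 method. Emulsifiable concentrates (10%) in water were sprayed at 150 g(a.i.)/ha during the 2-leaf to 5-leaf corn stage, on 20 m^2 plots repeated 4 times. 25% mesotrione oil dispersion was the control agent. Activity was scored from 1 to 9 by weed remaining relative to blank control plots.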

## COc1cccc(CNC(=O)c2cccnc2OC)c1 [Compound A87]
[1]
  Herbicidal Activity Barnyard grass: 2 (equivalent to 0 to 2.5% of the weed in the blank control area)
[2]
  Herbicidal Activity Piemarker: 2 (equivalent to 0 to 2.5% of the weed in the blank control area)
[3]
  Herbicidal Activity Green bristlegrass: 1
[4]
  Herbicidal Activity Amaranthus retroflexus: 2 (equivalent to 0 to 2.5% of the weed in the blank control area)
[5]
  Herbicidal Activity Digitaria sanguinalis: 2 (equivalent to 0 to 2.5% of the weed in the blank control area)
[6]
  Herbicidal Activity Humulus scandens: 3 (equivalent to 2.6 to 5% of the weed in the blank control area)
[7]
  Herbicidal Activity Amaranthus retroflexus: 1
[8]
  Herbicidal Activity Barnyard grass: 2 (equivalent to 0 to 2.5% of the weed in the blank control area)
[9]
  Herbicidal Activity Digitaria sanguinalis: 1
[10]
  Herbicidal Activity Humulus scandens: 1
[11]
  Herbicidal Activity Piemarker: 1
[12]
  Herbicidal Activity Green bristlegrass: 1
[13]
  Herbicidal activity 15 days after treatment Broadleaf weed: 1
  Herbicidal activity 30 days after treatment Broadleaf weed: 1
[14]
  Herbicidal activity 15 days after treatment Cyperaceae: 1
  Herbicidal activity 30 days after treatment Cyperaceae: 1
[15]
  Herbicidal activity 15 days after treatment Gramineae: 2 (equivalent to 0 to 2.5% of the weed in the blank control area)
  Herbicidal activity 30 days after treatment Gramineae: 1
[16]
  Post-emergence weed control effect, Acalypha australis: 2 (equivalent to 0 to 2.5% of the weed in the blank control area)
[17]
  Post-emergence weed control effect, Amaranthus retroflexus: 1
[18]
  Post-emergence weed control effect, Barnyard grass: 1
[19]
  Post-emergence weed control effect, Chenopodium album: 1
[20]
  Post-emergence weed control effect, Convolvulus arvensis: 1
[21]
  Post-emergence weed control effect, Digitaria sanguinalis: 2 (equivalent to 0 to 2.5% of the weed in the blank control area)
[22]
  Post-emergence weed control effect, Portulaca oleracea: 1
[23]
  Post-emergence weed control effect, Solanum nigrum: 2 (equivalent to 0 to 2.5% of the weed in the blank control area)
[24]
  Post-emergence weed control effect, Goose grass: 2 (equivalent to 0 to 2.5% of the weed in the blank control area)
[25]
  Post-emergence weed control effect, Green bristlegrass: 1
[26]
  Post-emergence weed control effect, Nutgrass flatsedge: 2 (equivalent to 0 to 2.5% of the weed in the blank control area)

## COc1ncccc1C(=O)NCc1cc(F)cc(Cl)c1 [Compound A89]
[1]
  Herbicidal Activity Barnyard grass: 1
[2]
  Herbicidal Activity Piemarker: 1
[3]
  Herbicidal Activity Green bristlegrass: 1
[4]
  Herbicidal Activity Amaranthus retroflexus: 1
[5]
  Herbicidal Activity Digitaria sanguinalis: 2 (equivalent to 0 to 2.5% of the weed in the blank control area)
[6]
  Herbicidal Activity Humulus scandens: 2 (equivalent to 0 to 2.5% of the weed in the blank control area)
[7]
  Herbicidal Activity Amaranthus retroflexus: 1
[8]
  Herbicidal Activity Barnyard grass: 1
[9]
  Herbicidal Activity Digitaria sanguinalis: 1
[10]
  Herbicidal Activity Humulus scandens: 1
[11]
  Herbicidal Activity Piemarker: 1
[12]
  Herbicidal Activity Green bristlegrass: 1
[13]
  Herbicidal activity 15 days after treatment Broadleaf weed: 1
  Herbicidal activity 30 days after treatment Broadleaf weed: 1
[14]
  Herbicidal activity 15 days after treatment Cyperaceae: 1
  Herbicidal activity 30 days after treatment Cyperaceae: 1
[15]
  Herbicidal activity 15 days after treatment Gramineae: 1
  Herbicidal activity 30 days after treatment Gramineae: 1
[16]
  Post-emergence weed control effect, Acalypha australis: 1
[17]
  Post-emergence weed control effect, Amaranthus retroflexus: 1
[18]
  Post-emergence weed control effect, Barnyard grass: 1
[19]
  Post-emergence weed control effect, Chenopodium album: 1
[20]
  Post-emergence weed control effect, Convolvulus arvensis: 1
[21]
  Post-emergence weed control effect, Digitaria sanguinalis: 2 (equivalent to 0 to 2.5% of the weed in the blank control area)
[22]
  Post-emergence weed control effect, Portulaca oleracea: 1
[23]
  Post-emergence weed control effect, Solanum nigrum: 2 (equivalent to 0 to 2.5% of the weed in the blank control area)
[24]
  Post-emergence weed control effect, Goose grass: 2 (equivalent to 0 to 2.5% of the weed in the blank control area)
[25]
  Post-emergence weed control effect, Green bristlegrass: 1
[26]
  Post-emergence weed control effect, Nutgrass flatsedge: 2 (equivalent to 0 to 2.5% of the weed in the blank control area)
